This passage reports Km results from publication PMC9080259, “Dual-cycle immobilization to reuse both enzyme and support by reblossoming enzyme–inorganic hybrid nanoflowers” (RSC Advances, 2018).

In this experiment the test system is T1, Bromelain.
T1 construct: commercial native preparation
Put plainly: absorbance at […] nm, hydrolysis. Type of experiment: biochemical. The following applies: free enzyme; 37 °C; pH not told; substrate of the kinetics taken from the activity assay.

Where a name gives a salt, the structure may show the parent alone.

Regarding `CCOC(=O)[C@H](CCCN=C(N)N)NC(=O)c1ccccc1` [N-Benzoyl-L-arginine ethyl ester hydrochloride], the Km amounted to 930 ± 40 µM.
